#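 All cell lines were grown in 96-well plates and treated with compound for 48 hours. At the GI50, growth is halved. At the TGI there is no net growth.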
# Experiments:
# Experiment in all cases: NCI tumour cell line growth inhibition, 48 h
# SNB-19 CNS = test system: SNB-19 CNS
# T-47D breast = test system: T-47D breast
# HCC-2998 colon = test system: HCC-2998 colon
# NCI/ADR-RES ovarian = test system: NCI/ADR-RES ovarian
# SK-OV-3 ovarian = test system: SK-OV-3 ovarian
# UACC-62 melanoma = test system: UACC-62 melanoma
# HCT-116 colon = test system: HCT-116 colon
# BT-549 breast = test system: BT-549 breast
# KM12 colon = test system: KM12 colon
# HL-60(TB) leukemia = test system: HL-60(TB) leukemia
# COLO 205 colon = test system: COLO 205 colon
# HOP-62 NSCLC = test system: HOP-62 NSCLC
# A498 renal = test system: A498 renal
# K-562 leukemia = test system: K-562 leukemia
# UO-31 renal = test system: UO-31 renal
# SW-620 colon = test system: SW-620 colon
# MDA-MB-231 breast = test system: MDA-MB-231 breast
# SK-MEL-28 melanoma = test system: SK-MEL-28 melanoma
# MDA-MB-435 = test system: MDA-MB-435
# CAKI-1 renal = test system: CAKI-1 renal
# U251 CNS = test system: U251 CNS
# MOLT-4 leukemia = test system: MOLT-4 leukemia
# HT29 colon = test system: HT29 colon
# PC-3 prostate = test system: PC-3 prostate
# CCRF-CEM leukemia = test system: CCRF-CEM leukemia
# SK-MEL-2 melanoma = test system: SK-MEL-2 melanoma
# SF-268 CNS = test system: SF-268 CNS
# SNB-75 CNS = test system: SNB-75 CNS
# NCI-H226 lung = test system: NCI-H226 lung
# SR leukemia = test system: SR leukemia
smiles,measurement,setting,value
O=C1/C=C/[C@@H](O)[C@@H]2C[C@@H](O)C[C@H]2/C=C/CCC[C@H](CCOCc2ccccc2)O1,TGI,SNB-19 CNS,> 100000 nM
same,GI50,T-47D breast,192 nM
same,TGI,T-47D breast,556 nM
same,GI50,HCC-2998 colon,110 nM
same,GI50,NCI/ADR-RES ovarian,46.9 nM
same,TGI,NCI/ADR-RES ovarian,5270 nM
same,GI50,SK-OV-3 ovarian,48.1 nM
same,TGI,SK-OV-3 ovarian,> 100000 nM
same,GI50,UACC-62 melanoma,37.2 nM
same,TGI,UACC-62 melanoma,12600 nM
same,GI50,HCT-116 colon,162 nM
same,TGI,HCT-116 colon,379 nM
same,GI50,BT-549 breast,117 nM
same,TGI,BT-549 breast,> 21900 nM
same,TGI,KM12 colon,31 nM
same,GI50,HL-60(TB) leukemia,282 nM
same,TGI,HL-60(TB) leukemia,3310 nM
same,GI50,COLO 205 colon,29.2 nM
same,TGI,COLO 205 colon,80.9 nM
same,GI50,HOP-62 NSCLC,73.8 nM
same,TGI,HOP-62 NSCLC,> 100000 nM
same,GI50,A498 renal,17.8 nM
same,TGI,A498 renal,123 nM
same,GI50,K-562 leukemia,327 nM
same,TGI,K-562 leukemia,> 100000 nM
same,GI50,UO-31 renal,70.1 nM
same,TGI,UO-31 renal,26600 nM
same,GI50,SW-620 colon,99.4 nM
same,TGI,SW-620 colon,822 nM
same,GI50,MDA-MB-231 breast,102 nM
same,TGI,MDA-MB-231 breast,267 nM
same,GI50,SK-MEL-28 melanoma,< 17 nM
same,TGI,SK-MEL-28 melanoma,84.9 nM
same,GI50,MDA-MB-435,53.9 nM
same,TGI,MDA-MB-435,> 100000 nM
same,GI50,CAKI-1 renal,331 nM
same,TGI,CAKI-1 renal,> 100000 nM
same,GI50,U251 CNS,97.8 nM
same,TGI,U251 CNS,> 100000 nM
same,GI50,MOLT-4 leukemia,305 nM
same,TGI,MOLT-4 leukemia,> 43700 nM
same,GI50,HT29 colon,27.4 nM
same,TGI,HT29 colon,212 nM
same,GI50,PC-3 prostate,164 nM
same,TGI,PC-3 prostate,> 100000 nM
same,GI50,CCRF-CEM leukemia,301 nM
same,TGI,CCRF-CEM leukemia,> 100000 nM
same,GI50,SK-MEL-2 melanoma,172 nM
same,TGI,SK-MEL-2 melanoma,649 nM
same,GI50,SF-268 CNS,37.6 nM
same,TGI,SF-268 CNS,> 100000 nM
same,GI50,SNB-75 CNS,< 27.7 nM
same,TGI,SNB-75 CNS,> 95400 nM
same,GI50,NCI-H226 lung,18.8 nM
same,TGI,NCI-H226 lung,251 nM
same,GI50,SR leukemia,142 nM
